{"source": "paper PMC10609854", "about": "(Pharmaceuticals, 2023)", "key": {"[1]": {"test_system": "OXPT-induced tactile allodynia", "assay": "oxaliplatin-induced neuropathic pain, von Frey test", "type": "in vivo", "conditions": "mice", "description": "Neuropathy was induced by administering a single dose (10 mg/kg) of Oxaliplatin (OXPT) dissolved in a 5% glucose solution (Polfa Kutno, Poland). To assess the response to mechanical stimuli, the von Frey test was carried with application of the electronic von Frey unit (Bioseb, France). The apparatus contained a single flexible filament, which was used to apply increasing force ranging from 0 to 10 g to the plantar surface of the mouse’s hind paw. The crossing of pain threshold led to the paw withdrawal. The mechanical pressure that evoked the nocifensive response was subsequently recorded. The measurement was performed before the OXPT administration and 7 days afterwards. The compounds were administrated to the animals with developed mechanical allodynia observed as a statistically significant decrease in pain threshold. On the day of the experiment, each mouse was placed in an observation chamber with a wire mesh bottom and was allowed to habituate for 1 h. After the habituation period, the mouse pain threshold was tested 3 times alternately with at least a 30 s gap between each measurement. The mean of these three consecutive measurements was taken as a baseline value. The mice with tactile allodynia were i.p. pretreated with the tested compound or their combinations, and 30 min later the animals were tested again according to the same procedure."}, "[2]": {"target": "human histamine H4 receptor", "conditions": "read-out: Ki, human histamine H4 receptor; cited from earlier work"}, "[3]": {"target": "human histamine H1 receptor", "set-up": "method as in PMID 28797771", "conditions": "cited from earlier work"}, "H3R": {"test_system": "H3R", "set-up": "method as in PMID 28797771", "conditions": "read-out: IC50, cAMP accumulation assay (H3R antagonist potency); cited from earlier work"}, "CQ-induced pruritus": {"test_system": "CQ-induced pruritus", "assay": "chloroquine (CQ)-induced pruritus", "type": "in vivo, mice", "conditions": "mice, 2.5, 5, 10 and 15 mg/kg i.p.; 30 min observation", "description": "(§1) The area (around 2 cm^2) of the nape of mice was shaved at least 2 days prior to experiments. On the day of the experiment, each mouse was individually placed in plastic chambers (15 × 15 × 30 cm). After the 30 min period of habituation, the mice received an intradermal (i.d.) injection of histamine dihydrochloride (10 µmol/site), chloroquine (CQ, 200 µg/site), or SLIGRL-NH2 (40 nmol/site), which were dissolved in physiological saline and administrated at the constant volume of 20 μL. Immediately following the injection, scratching (series of movements considered as a single scratching bout usually consisted of three single scratches) of the injected site by the hind paw was counted for 60 min, 30 min, or 45 min after histamine, CQ, and SLIGRL-NH2 injection, respectively."}, "[4]": {"test_system": "histamine-induced pruritus", "assay": "histamine-induced pruritus", "type": "in vivo", "conditions": "mice", "description": "as §1"}, "hMAO B": {"test_system": "hMAO B", "set-up": "method as in PMID 34208297", "conditions": "cited from earlier work"}, "human sigma 1 receptor": {"target": "T1, human sigma 1 receptor (Homo sapiens, UniProt Q99720)", "T1 construct": "[^3H](+)pentazocine (agonist) in Jurkat cells; host or cells: Jurkat cells", "T1 sequence (Q99720 whole entry)": "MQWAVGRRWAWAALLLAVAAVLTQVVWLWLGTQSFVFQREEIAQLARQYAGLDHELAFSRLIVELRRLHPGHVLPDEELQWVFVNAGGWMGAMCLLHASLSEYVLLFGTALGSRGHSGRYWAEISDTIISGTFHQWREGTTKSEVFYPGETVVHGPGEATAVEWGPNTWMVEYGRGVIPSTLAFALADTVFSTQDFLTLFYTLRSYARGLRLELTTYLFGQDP", "assay": "radioligand binding, human sigma 1 receptor ([3H](+)pentazocine, Jurkat cells)"}, "human sigma 2 receptor": {"target": "T2, human sigma 2 receptor (Homo sapiens, UniProt Q5BJF2)", "T2 construct": "host or cells: Jurkat cells", "T2 sequence (Q5BJF2 whole entry)": "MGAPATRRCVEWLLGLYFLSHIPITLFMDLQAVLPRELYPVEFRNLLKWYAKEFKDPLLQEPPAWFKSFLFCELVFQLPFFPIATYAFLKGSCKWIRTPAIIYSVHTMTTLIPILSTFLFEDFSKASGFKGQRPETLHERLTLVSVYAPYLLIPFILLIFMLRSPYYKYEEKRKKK", "assay": "radioligand binding, human sigma 2 receptor ([3H]DTG, Jurkat cells)", "conditions": "[3H]DTG with unlabeled (+)-pentazocine"}, "eqBuChE": {"test_system": "eqBuChE", "set-up": "method as in PMID 34208297", "conditions": "cited from earlier work"}, "SLIGRL-induced pruritus": {"test_system": "SLIGRL-induced pruritus", "assay": "SLIGRL-induced pruritus", "type": "in vivo", "conditions": "mice, 45 min observation", "description": "as §1"}, "[5]": {"test_system": "carrageenan-induced mechanical hyperalgesia", "assay": "carrageenan-induced mechanical hyperalgesia (Randall-Selitto)", "type": "in vivo", "conditions": "rats, 3 h after carrageenan, vehicle 87.8%", "description": "(§2) The acute, local inflammation and paw edema was induced by subplantar injection of 0.1 mL of 1% carrageenan (made in PBS) into the rat right hind paw. The paw volume was measured using the dislocation of the water column of the plethysmometer (Plethysmometr 7140, Ugo Basile) before and at 1, 2, and 3 h after subplantar injection of carrageenan.\nFurthermore, to assess the heightened sensitivity to mechanical stimuli, we employed the pain pressure threshold test. This involved applying increasing pressure to the dorsal surface of the right hind paw using an automated gauge (Analgesy Meter 37215, Ugo Basile, Gemonio, Italy), following the method outlined by Randall and Selitto. The force’s intensity, measured in grams, was recorded when the paw was withdrawn (withdrawal threshold). For each animal, withdrawal thresholds were recorded both prior to the administration of carrageenan and three hours afterward. The results were expressed as a percentage of the initial reaction, with the nociceptive response before carrageenan administration considered as the baseline (100% response)."}, "[6]": {"test_system": "carrageenan-induced edema", "assay": "carrageenan-induced paw edema", "type": "in vivo", "conditions": "rats, 30 mg/kg", "description": "as §2"}, "human μ opioid receptor": {"target": "T3, human μ opioid receptor (Homo sapiens, UniProt P35372)", "T3 construct": "host or cells: HEK293 cells", "T3 sequence (P35372 whole entry)": "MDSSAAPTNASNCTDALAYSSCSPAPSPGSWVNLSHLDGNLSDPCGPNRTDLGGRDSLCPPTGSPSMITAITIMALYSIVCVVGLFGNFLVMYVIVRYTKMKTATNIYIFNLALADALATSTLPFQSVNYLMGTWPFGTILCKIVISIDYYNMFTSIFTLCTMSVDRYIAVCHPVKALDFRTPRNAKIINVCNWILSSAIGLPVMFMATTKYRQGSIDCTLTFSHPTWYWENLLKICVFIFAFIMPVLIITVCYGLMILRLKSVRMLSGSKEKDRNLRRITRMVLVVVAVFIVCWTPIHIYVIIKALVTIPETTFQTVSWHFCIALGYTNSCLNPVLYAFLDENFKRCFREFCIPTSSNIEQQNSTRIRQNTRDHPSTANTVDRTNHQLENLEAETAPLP", "assay": "radioligand binding, human opioid μ receptor ([3H]DAMGO, HEK293 cells)"}, "[7]": {"test_system": "carrageenan-induced thermal hyperalgesia", "assay": "carrageenan-induced thermal hyperalgesia (plantar test)", "type": "in vivo", "conditions": "rats", "description": "as §2\nTo evaluate the heightened sensitivity to thermal stimuli, we employed a plantar test apparatus (Commat Ltd., Ankara, Turkey). Rats were individually placed in plexiglass chambers and allowed to acclimatize for 20 to 30 min before testing. A radiant heat source was positioned beneath the chamber floor, directly under the hind paw. The time it took for the paw to withdraw in response to the heat was automatically recorded by a photocell and an electronic timer. The intensity of the radiant heat was adjusted to achieve baseline withdrawal times of 10–15 s, and a preset cut-off time of 30 s was established to prevent tissue damage. […] Three successive applications of the heating stimulus were performed, with 1- to 2-minute intervals between them, and the mean of these measurements was calculated. Paw withdrawal latency was recorded for each animal before carrageenan administration and at 1, 2, and 3 h afterward."}, "[8]": {"test_system": "(R)-(-)-α-methylhistamine-induced dipsogenia", "set-up": "method as in PMID 28797771", "conditions": "rats; cited from earlier work"}}}
{"smiles": "O=C(O)C(=O)O.c1ccc(-c2ccc(OCCCCCN3CCCCCC3)cc2)cc1", "note": "[Compound E153, 1-(5-(4-Phenylphenoxy)pentyl)azepane hydrogen oxalate]", "values": [{"measurement": "von Frey paw withdrawal force, % of baseline", "setting": "[1]; 10 mg/kg i.p., early phase (3 h after OXPT), OXPT alone 60.13%", "value": 71.5, "unit": "%"}, {"measurement": "reversal of the effect of OXPT (von Frey)", "setting": "[1]; 10 mg/kg i.p., late phase (7 days after OXPT)", "value": "not in late phase"}, {"measurement": "von Frey paw withdrawal force, % of baseline", "setting": "[1]; 15 mg/kg i.p., early phase (3 h), OXPT alone 60.5%", "value": 80.0, "unit": "%"}, {"measurement": "von Frey paw withdrawal force, % of baseline", "setting": "[1]; 15 mg/kg i.p., late phase (7 days), OXPT alone 57.4%", "value": 79.4, "unit": "%"}, {"measurement": "von Frey paw withdrawal force, % of baseline", "setting": "[1]; 30 mg/kg i.p., early phase (3 h), OXPT alone 57.9%", "value": 97.9, "unit": "%"}, {"measurement": "von Frey paw withdrawal force, % of baseline", "setting": "[1]; 30 mg/kg i.p., late phase (7 days), OXPT alone 60.6%", "value": 87.9, "unit": "%"}, {"measurement": "Ki", "setting": "[2]", "value": 22000, "unit": "nM"}, {"measurement": "Ki", "setting": "[3]", "value": 1270, "unit": "nM"}, {"measurement": "IC50", "setting": "H3R", "value": 9, "unit": "nM"}, {"measurement": "number of scratch bouts, CQ-induced pruritus", "setting": "CQ-induced pruritus", "value": "significantly decreased"}, {"measurement": "activity in histamine-induced pruritus", "setting": "[4]; 5 mg/kg i.p.", "value": "active"}, {"measurement": "scratching behavior, histamine-induced pruritus", "setting": "[4]; i.p. 30 min before i.d. histamine", "value": "significantly reduced scratching behavior"}, {"measurement": "IC50", "setting": "hMAO B", "value": 240, "unit": "nM"}, {"measurement": "IC50", "setting": "human sigma 1 receptor", "value": 2.4, "unit": "nM"}, {"measurement": "Ki", "setting": "human sigma 1 receptor", "value": 1.2, "unit": "nM"}, {"measurement": "inhibition at 1 µM", "setting": "human sigma 1 receptor; at 1 μM", "value": 95, "unit": "%"}, {"measurement": "inhibition at 1 µM", "setting": "human sigma 2 receptor", "value": 102, "unit": "%"}, {"measurement": "IC50", "setting": "eqBuChE", "value": 590, "unit": "nM"}, {"measurement": "scratch bouts, SLIGRL-induced pruritus", "setting": "SLIGRL-induced pruritus; 5 mg/kg i.p.", "value": "not effective"}, {"measurement": "scratch bouts, SLIGRL-induced pruritus", "setting": "SLIGRL-induced pruritus; 7.5 and 10 mg/kg i.p.", "value": "significantly diminished"}, {"measurement": "mechanical pain threshold, % of baseline", "setting": "[5]; 15 mg/kg", "value": 112.5, "unit": "%"}, {"measurement": "mechanical pain threshold, % of baseline", "setting": "[5]; 30 mg/kg", "value": 111.8, "unit": "%"}, {"measurement": "paw volume increase, carrageenan edema", "setting": "[6]; 1 h after carrageenan, vehicle 51.1%", "value": 27.1, "unit": "%"}, {"measurement": "paw volume increase, carrageenan edema", "setting": "[6]; 2 h after carrageenan, vehicle 102.4%", "value": 45.4, "unit": "%"}, {"measurement": "paw volume increase, carrageenan edema", "setting": "[6]; 3 h after carrageenan, vehicle 123.5%", "value": 42.6, "unit": "%"}, {"measurement": "inhibition at 1 µM", "setting": "human μ opioid receptor", "value": 11, "unit": "%"}, {"measurement": "paw withdrawal latency (thermal), % of baseline", "setting": "[7]; 15 mg/kg, 1 h after carrageenan", "value": 100.8, "unit": "%"}, {"measurement": "paw withdrawal latency (thermal), % of baseline", "setting": "[7]; 15 mg/kg, 2 h after carrageenan", "value": 122.6, "unit": "%"}, {"measurement": "paw withdrawal latency (thermal), % of baseline", "setting": "[7]; 15 mg/kg, 3 h after carrageenan", "value": 122.6, "unit": "%"}, {"measurement": "paw withdrawal latency (thermal), % of baseline", "setting": "[7]; 30 mg/kg, 1 h after carrageenan", "value": 130.3, "unit": "%"}, {"measurement": "paw withdrawal latency (thermal), % of baseline", "setting": "[7]; 30 mg/kg, 2 h after carrageenan", "value": 114.8, "unit": "%"}, {"measurement": "paw withdrawal latency (thermal), % of baseline", "setting": "[7]; 30 mg/kg, 3 h after carrageenan", "value": 126.6, "unit": "%"}, {"measurement": "ED50, (R)-(-)-α-methylhistamine-induced dipsogenia", "setting": "[8]", "value": 1.75, "unit": "mg/kg"}]}
